Experimental data taken from EPA's ToxValDB 9.5.
“And” between values parts separate entries of the source, which are not always exact repeats. Identical values can stand only once.

Experiments:
Mus musculus = conditions: for LD50: acute
Oryctolagus sp. = conditions: for LD50: acute
Rattus norvegicus [1] = system: Rattus norvegicus
Rattus norvegicus [2] = conditions: oral, gavage
Canidae = conditions: chronic, oral, diet, Dog Other
Rattus norvegicus [3] = conditions: Hershberger; duration: 10 days; oral; gavage; Sprague-Dawley; inactive + Negative + Negative + neither + negative
[4] = duration: 2 years, M/F, abnormal pigments in blood
[5] = duration: 2 years, M/F, testicular degeneration
[6] = duration: 6 months, M/F, increased serum alkaline phosphatase levels and increased liver-to-brain weight ratio
[7] = acute, oral, gavage, Sprague-Dawley
[8] = subchronic, duration: 13 weeks, oral, gavage, Sprague-Dawley
[9] = duration: 1 years, F, anemia (males)
[10] = duration: 1 years, M, anemia (males)
[11] = duration: 1 years, M, increased serum bilirubin and aspartate aminotransferase, increased urinary volume

With `C=CCOC(=O)OCCOCCOC(=O)OCC=C` [Diallyl diglycol carbonate] the LD50 (Mus musculus; injection, Intraperitoneal, albino) was 269 mg/kg, the NOAEL (Oryctolagus sp.; reproduction developmental, duration: 6 days, dermal, New Zealand) was 0.1 mg/kg-day and the LD50 (Rattus norvegicus [1]; acute, oral, gavage, Crl) was 349 mg/kg. The LD50 (Rattus norvegicus [1]; acute, oral, gavage, Fischer 344) was 515 mg/kg.
Compound `C1=CC2C3C=CC(C3)C2C1` (configuration not stated) [Dicyclopentadiene] has an NOAEL (Oryctolagus sp.; reproduction developmental, duration: 14 days, oral, gavage, F, New Zealand) of 25 mg/kg-day, an NOAEL (Rattus norvegicus [1]; developmental, duration: 10 days, oral, diet, Sprague-Dawley) of 750 ppm and an NOAEL (Rattus norvegicus [1]; developmental, duration: 10 days, oral, gavage, Sprague-Dawley) of 50 mg/kg-day. It also gave an NOAEL (Rattus norvegicus [1]; reproduction developmental, duration: 10 days, oral, diet, F, Sprague-Dawley) of 750 ppm, an NOAEL (Rattus norvegicus [1]; reproduction developmental, oral, diet, Sprague-Dawley, generation: F0) of 750 ppm and an NOAEL (Rattus norvegicus [1]; reproduction developmental, oral, diet, Sprague-Dawley, generation: F1) of 750 ppm. It also gave an NOAEL (Rattus norvegicus [1]; reproduction developmental, oral, diet, Sprague-Dawley, generation: F2) of 750 ppm, an NOAEL (Rattus norvegicus [1]; reproduction developmental, oral, gavage, F, Sprague-Dawley) of 20 mg/kg-day and an NOAEL (Rattus norvegicus [1]; reproduction developmental, oral, gavage, M, Sprague-Dawley) of 100 mg/kg-day. For the same compound, the NOAEL (Rattus norvegicus [1]; reproduction developmental, oral, gavage, Sprague-Dawley, generation: F1) was 20 mg/kg-day and the NOEL (Rattus norvegicus [2]; short-term, duration: 28 days, M/F, Fischer 344, Deaths + Clinical Observation: Salivation + Body Weight Changes: Weight gain decrease + Food Consumption: decrease + Blood Chemistry: GPT …) was 8 mg/kg-day.
`CN(C)C(=O)Nc1ccc(Cl)c(Cl)c1` [Diuron] showed an NOEL (Rattus norvegicus [2]; subchronic, M, Sprague-Dawley, Body Weight Changes: decrease + Hematology: RBC decrease, Hgb decrease, Hct decrease, MCHC decrease, MCV increase, Ret increase + Blood …) of 20 mg/kg-day, an LEL (Canidae; [4]) of 3.12 mg/kg-day and an NOEL (Canidae; [4]) of 0.625 mg/kg-day.
With `CCOC(=O)CCl` [Ethyl chloroacetate] the LD50 (Mus musculus; injection, subcutaneous) was 250 mg/kg, the LD50 (Mus musculus; oral) was 350 mg/kg and the LD50 (Oryctolagus sp.; dermal) was 335 mg/kg and 230 mg/kg. It also gave an LD50 (Oryctolagus sp.; dermal, occlusive, New Zealand) of 255 mg/kg and an LD50 (Rattus norvegicus [1]; acute, dermal) of 161 mg/kg.
In the case of `CCOP(=O)=O.CCOP(=O)=O.CCOP(=O)=O.[Al+3]` [Fosetyl aluminum], the NOEL (Canidae; duration: 2 years, testicular degeneration) is reported as 250 mg/kg-day, the LEL (Canidae; [5]) is reported as 400 mg/kg-day and the NOEL (Canidae; [5]) is reported as 250 mg/kg-day.
For `COCC(=O)N(c1c(C)cccc1C)C(C)C(=O)OC` (configuration not stated) [Metalaxyl], the LEL (Canidae; [6]) was 25 mg/kg-day, the NOEL (Canidae; [6]) was 6.25 mg/kg-day and the NOEL (Rattus norvegicus [3]) was 350 mg/kg-day.
`CC(C)CCC(C)Nc1ccc(NC(C)CCC(C)C)cc1` (configuration not stated) [N,N'-Bis(1,4-dimethylpentyl)-4-phenylenediamine] was tested, and the LD50 (Oryctolagus sp.; dermal, occlusive, New Zealand) was > 3160 mg/kg, the LC50 (Rattus norvegicus [1]; acute, inhalation) was > 400 mg/m3 and the LD50 (Rattus norvegicus [1]; [7]) was 730 mg/kg. It also gave an LOAEL (Rattus norvegicus [1]; chronic, duration: 22 weeks, inhalation) of 100 mg/m3, an NOAEL (Rattus norvegicus [1]; developmental, duration: 10 days, oral, gavage, Charles River CD Albino) of 150 mg/kg-day and an NOAEL (Rattus norvegicus [1]; reproduction developmental, duration: 23 weeks, oral, diet, generation: F0) of 30 ppm. For the same compound, the NOAEL (Rattus norvegicus [1]; reproduction developmental, duration: 23 weeks, oral, diet, generation: F1) was 30 ppm, the NOAEL (Rattus norvegicus [1]; reproduction developmental, duration: 23 weeks, oral, diet, generation: F2) was 30 ppm and the NOAEL (Rattus norvegicus [1]; reproduction developmental, duration: 10 days, oral, gavage, F, Charles River CD Albino) was 25 mg/kg-day. For the same compound, the NOAEL (Rattus norvegicus [1]; subchronic, duration: 30 days, oral, diet, F, Sprague-Dawley) was 28.8 mg/kg-day, the NOAEL (Rattus norvegicus [1]; subchronic, duration: 30 days, oral, diet, M, Sprague-Dawley) was 9.6 mg/kg-day and the NOAEL (Rattus norvegicus [1]; subchronic, duration: 90 days, oral, diet, M, Sprague-Dawley) was 9.6 mg/kg-day.
With `CN1C(=O)c2ccc([N+](=O)[O-])cc2C1=O` [N-Methyl-4-nitrophthalimide] the LD50 (Oryctolagus sp.; dermal, New Zealand) was > 2000 mg/kg, the NOAEL (Oryctolagus sp.; developmental, duration: 13 days, oral, gavage, New Zealand) was 50 mg/kg-day and the NOAEL (Oryctolagus sp.; reproduction developmental, duration: 13 days, oral, gavage, F, New Zealand) was 50 mg/kg-day. For the same compound, the LD50 (Rattus norvegicus [1]; acute, inhalation, whole body, Sprague-Dawley) was > 36 mg/L, the LD50 (Rattus norvegicus [1]; [7]) was 2800 mg/kg and the NOAEL (Rattus norvegicus [1]; developmental, duration: 9 days, oral, gavage, Sprague-Dawley) was 50 mg/kg-day. The NOAEL (Rattus norvegicus [1]; reproduction developmental, duration: 4 weeks, oral, gavage, Sprague-Dawley) was > 25 mg/kg-day, the NOAEL (Rattus norvegicus [1]; reproduction developmental, duration: 4 weeks, oral, gavage, Sprague-Dawley, generation: F0) was 2.5 mg/kg-day and the NOAEL (Rattus norvegicus [1]; reproduction developmental, duration: 4 weeks, oral, gavage, Sprague-Dawley, generation: F1) was > 25 mg/kg-day. For the same compound, the NOAEL (Rattus norvegicus [1]; reproduction developmental, duration: 9 days, oral, gavage, F, Sprague-Dawley) was 10 mg/kg-day, the LOAEL (Rattus norvegicus [1]; [8]) was 10 mg/kg-day and the NOAEL (Rattus norvegicus [1]; [8]) was 1 mg/kg-day.
With `CCCCCCCCC=O` [Nonanal] the LD50 (Oryctolagus sp.; dermal, albino) was > 5000 mg/kg and the LD50 (Rattus norvegicus [1]; acute, oral, gavage, Wistar) was > 5000 mg/kg.
For `CCC/C(=N\OCC)C1=C(O)CC(CC(C)SCC)CC1=O` (configuration not stated) [Sethoxydim], the LEL (Canidae; [9]) was 19.9 mg/kg-day, the NOEL (Canidae; [9]) was 9.41 mg/kg-day and the LEL (Canidae; [10]) was 17.5 mg/kg-day. The NOEL (Canidae; [10]) was 8.86 mg/kg-day.
In the case of `CCN(CC)C(=S)SSC(=S)N(CC)CC` [Tetraethylthiuram disulfide], the NOAEL (Mus musculus; reproduction developmental, duration: 6 days, oral, gavage, CD1, generation: F1) is reported as > 4900 mg/kg-day, the LD50 (Oryctolagus sp.; dermal, occlusive, New Zealand) is reported as > 2000 mg/kg and the LD50 (Rattus norvegicus [1]; [7]) is reported as 4570 mg/kg and > 5200 mg/kg and 7070 mg/kg. The NOAEL (Rattus norvegicus [1]; reproduction developmental, duration: 19 days, oral, gavage, F, Sprague-Dawley) was > 250 mg/kg-day.
Compound `COC(=O)c1ccccc1S(=O)(=O)NC(=O)N(C)c1nc(C)nc(OC)n1` [Tribenuron-methyl] has an LEL (Canidae; [11]) of 8.16 mg/kg-day and an NOEL (Canidae; [11]) of 0.79 mg/kg-day.
With `Cc1ccc(OP(=O)(Oc2ccc(C)cc2C)Oc2ccc(C)cc2C)c(C)c1` [Trixylyl phosphate] the LD50 (Oryctolagus sp.; dermal, New Zealand) was > 2000 mg/kg and the LD50 (Rattus norvegicus [1]; [7]) was > 20000 mg/kg.
